{
  "source": "paper PMC12643354",
  "about": "“From Oxygen to Tellurium: The Impact of the Chalcogen on Nucleophilicities and Basicities of Isochalcogenourea Catalysts” (Angewandte Chemie (International Ed. in English), 2025)",
  "key": {"[1]": {"settings": "in methanolic aqueous solution (1:5-mixture); cited from earlier work"}, "[2]": {"test": "Kinetics of IChU reactions with reference electrophile (dma)2CH+ (stopped-flow photometry)", "format": "physicochemical", "settings": "E = −7.02, dichloromethane, 20 °C", "text": "(§1) In order to systematically investigate the influence of the chalcogen atom on the nucleophilicity of DHPB‐derived IChUs (Ch = O, S, Se, and Te), we utilized Mayr's benzhydrylium methodology.^[ [107] ^]\n(§2) In accordance with observations in previous studies on ITU reactivity,^[ [119] ^] mixing the strongly colored benzhydrylium tetrafluoroborates 18 with excess IChUs in dichloromethane gave rise to decolorization of the solutions due to the formation of isochalcogenouronium tetrafluoroborates 19, which are colourless (Figure 3a). Owing to reversibility of the C─N bond formation, generated adducts 19 from the IChU/benzhydrylium reactions were not isolated but characterized by ^1H, ^13C, and ^77Se NMR spectroscopy (the ^77Se nucleus is remarkably sensitive with observed changes of around 100 ppm when comparing the ^77Se resonances of free ISeUs with those of the corresponding selenouronium tetrafluoroborates^[ [95] ^]). The kinetics of the IChU reactions with the reference electrophiles 18 were traced by photometric methods using standard stopped‐flow techniques. To establish pseudo first‐order conditions and to secure a sufficient decay of the benzhydrylium's absorbance during the course of the reactions, the IChUs were employed at higher concentrations than the benzhydrylium ions. First‐order rate constants k obs (s^−1) were determined by fitting the mono‐exponential decay function in Equation (2) to the decreasing absorbance (A) of 18 during their reaction with the IChUs as exemplified for the reaction of ITeU3 with (ind)2CH^+ in Figure 3b. (2) A=A0e^−kobst+C […]\n(§3) First‐order rate constants k obs correlated linearly with the IChU concentration. Therefore, second‐order rate constants k 2 (L mol^−1 s^−1) were determined from the slope of the linear regression curves (Figure 3c ^[ [95] ^]). Second‐order rate constants k 2 for all kinetically investigated reactions of DHPB‐derived IChUs (Ch = O, S, Se, and Te) with benzhydrylium ions 18 are gathered in Table 1.\n(§4) Apart from CH2Cl2 also MeCN and THF are solvents that are commonly employed in reactions involving isochalcogenoureas. […]"}, "[3]": {"test": "Kinetics of IChU reactions with reference electrophile (thq)2CH+ (stopped-flow photometry)", "format": "physicochemical", "settings": "E = −8.22, dichloromethane, 20 °C", "text": "as §1\n(§5) In accordance with observations in previous studies on ITU reactivity,^[ [119] ^] mixing the strongly colored benzhydrylium tetrafluoroborates 18 with excess IChUs in dichloromethane gave rise to decolorization of the solutions due to the formation of isochalcogenouronium tetrafluoroborates 19, which are colourless (Figure 3a). […] To establish pseudo first‐order conditions and to secure a sufficient decay of the benzhydrylium's absorbance during the course of the reactions, the IChUs were employed at higher concentrations than the benzhydrylium ions. First‐order rate constants k obs (s^−1) were determined by fitting the mono‐exponential decay function in Equation (2) to the decreasing absorbance (A) of 18 during their reaction with the IChUs as exemplified for the reaction of ITeU3 with (ind)2CH^+ in Figure 3b. […]\n(§6) First‐order rate constants k obs correlated linearly with the IChU concentration. Therefore, second‐order rate constants k 2 (L mol^−1 s^−1) were determined from the slope of the linear regression curves (Figure 3c ^[ [95] ^]). […]"}, "[4]": {"test": "Kinetics of IChU reactions with reference electrophile (ind)2CH+ (stopped-flow photometry)", "format": "physicochemical", "settings": "E = −8.76, dichloromethane, 20 °C", "text": "as §1, §2, §3, §4"}, "[5]": {"test": "Kinetics of IChU reactions with reference electrophile (lil)2CH+ (stopped-flow photometry)", "format": "physicochemical", "settings": "E = −10.04, dichloromethane, 20 °C", "text": "as §1, §5, §6"}, "[6]": {"test": "Lewis basicity LB from equilibrium constants (photometric titrations) with benzhydrylium ions as reference Lewis acids", "format": "physicochemical", "parameters": "key: Mayr Lewis basicity scale; LB from K and reference LA via Eq. (3)", "settings": "in dichloromethane, 20 °C", "method": "(a) Lewis basicity. Previously, the Mayr group established a series of benzhydrylium ions as C‐centered Lewis acid references to construct a Lewis basicity scale in dichloromethane. Substituting experimentally determined equilibrium constants K (at 20 °C) and reported Lewis acidities LA for the benzhydrylium ions (Figure 7) in Equation (3) enables one to calculate the Lewis basicity (LB) of a Lewis base.^[ [121], [127] ^] (3) lgK(20^∘C)=LA+LB\nThe reversibility of the formation of adducts 19 (Equation (4)), which was also apparent in the kinetics by significant positive intercepts in several of the k obs versus [IChU] plots (Supporting Information), provided the opportunity to probe the thermodynamics of the C‐N bond‐forming reactions of IChUs with benzhydrylium ions as the reference Lewis acids in more detail.^[ [95] ^] (4) IChU+Ar2CH^+(18)⇌Ar2CH-IChU^+(19)\nBy assuming the validity of the Beer–Lambert law for dilute solutions, equilibrium constants K (L mol^−1) were determined in photometric titrations according to Equation (5) from the initial absorbance (A 0) of the benzhydrylium ions 18 and the absorbance at equilibrium (A, Equation 5), that is, after addition of a certain amount of an IChU.^[ [109], [110], [111], [112], [113], [114], [115], [119] ^] (5) K=[19]/[18]IChU=A0−A/AIChU"}, "[7]": {"test": "Kinetics of IChU reactions with reference electrophile (dpa)2CH+ (stopped-flow photometry)", "format": "physicochemical", "settings": "E = −4.72, dichloromethane, 20 °C", "text": "as §1, §5, §6"}, "[8]": {"test": "Kinetics of IChU reactions with reference electrophile (mor)2CH+ (stopped-flow photometry)", "format": "physicochemical", "settings": "E = −5.53, dichloromethane, 20 °C", "text": "as §1, §5, §6"}},
  "note": "Marks after values point to notes of the source that are not given here.",
  "data": [
    {"smiles": "c1ccc2c(c1)[Se]C1=NCCCN12", "note": "[ISeU3, SeDHPB]", "values": [
      {"measurement": "Brønsted basicity pKaH(H2O)", "setting": "[1]", "result": ">11 ^c)"},
      {"measurement": "Second-order rate constant k2 exptl", "setting": "[2]", "result": 194000, "unit": "M⁻¹ s⁻¹"},
      {"measurement": "Second-order rate constant k2 exptl", "setting": "[3]", "result": 38100, "unit": "M⁻¹ s⁻¹"},
      {"measurement": "Second-order rate constant k2 exptl", "setting": "[4]", "result": 18100, "unit": "M⁻¹ s⁻¹"},
      {"measurement": "Second-order rate constant k2 exptl", "setting": "[5]", "result": 1980, "unit": "M⁻¹ s⁻¹"},
      {"measurement": "Lewis basicity LB", "setting": "[6]", "result": 15.54}
    ]},
    {"smiles": "c1ccc2c(c1)OC1=NCCCN12", "note": "[IU3, ODHPB]", "values": [
      {"measurement": "Brønsted basicity pKaH(H2O)", "setting": "[1]", "result": "8.8 ^c)"},
      {"measurement": "Second-order rate constant k2 exptl", "setting": "[2]", "result": 27900, "unit": "M⁻¹ s⁻¹"},
      {"measurement": "Second-order rate constant k2 exptl", "setting": "[7]", "result": 896000, "unit": "M⁻¹ s⁻¹"},
      {"measurement": "Second-order rate constant k2 exptl", "setting": "[4]", "result": 1200, "unit": "M⁻¹ s⁻¹"},
      {"measurement": "Lewis basicity LB", "setting": "[6]", "result": 13.66},
      {"measurement": "Second-order rate constant k2 exptl", "setting": "[8]", "result": 185000, "unit": "M⁻¹ s⁻¹"}
    ]}
  ]
}
